Experimental data from US20090281120A1, “BICYCLIC HETEROCYCLIC COMPOUND” (ONO PHARMACEUTICAL CO., LTD, priority 2005, published 2009).

Legend:
human CRF receptor I [1] = target: T1, human CRF receptor I (Homo sapiens, UniProt P34998); assay: Receptor antagonistic activity (cyclic AMP assay); assay type: cell-based; settings: forced expression cell strain of human CRF receptor I; stimulated with human/rat CRF; 37° C., 15 minutes; read-out: antagonistic activity against CRF IC50 value (accumulated cyclic AMP)
T1 construct: expressed in transfected cells; host or cells: CHO-K1
T1 sequence (P34998 24-415): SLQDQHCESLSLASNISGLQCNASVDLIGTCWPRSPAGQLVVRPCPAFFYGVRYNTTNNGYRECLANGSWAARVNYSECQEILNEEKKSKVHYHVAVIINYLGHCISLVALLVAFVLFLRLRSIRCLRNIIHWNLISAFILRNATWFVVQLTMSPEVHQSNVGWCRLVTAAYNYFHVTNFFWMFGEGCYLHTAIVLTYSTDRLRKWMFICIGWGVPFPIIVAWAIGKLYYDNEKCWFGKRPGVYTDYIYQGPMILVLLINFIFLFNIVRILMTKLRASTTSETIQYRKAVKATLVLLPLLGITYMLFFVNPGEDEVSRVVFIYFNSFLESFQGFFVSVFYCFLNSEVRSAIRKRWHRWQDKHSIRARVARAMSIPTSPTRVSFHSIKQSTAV
Experimental: The forced expression cell strain of the human CRF receptor I was cultured at 37° C. under 5% carbon dioxide and 95% air by using a Ham's F-12 medium (F-12 nutrient mixture) containing 10% bovine fetal serum and 1% antibiotic substance-antifungal agent. On the previous day before the cyclic AMP was measured, the cells were inoculated into a 96-well plate in an amount of 1×10^4 cell/well. On the measurement day, the cells were washed twice with a Ham's F-12 medium, whereby a solution of Ham's F-12 medium/1 mM 3-isobutyl-1-methylxanthine (assay medium) (178 μL) was added to each well. After the incubation at 37° C. for 10 minutes, test drug solutions (2 μL) in various concentrations were added thereto, or DMSO (2 μL) was added to a CRF group and a blank group. An assay medium (20 μL) containing 10 nM human/rat CRF was added to wells of a compound group and the CRF group. An assay medium (20 μL) containing 0.00001% acetic acid was added to the blank group. Each group was further incubated at 37° C. for 15 minutes. […] The accumulated cyclic AMP amounts were calculated by subtracting mean values of corresponding 2 wells in the blank group from that of 2 wells. The IC50 values were calculated with non-linear regression analysis by defining logarithm concentration of the compound as independent variable and an accumulated cyclic AMP amount as dependent variable.

human CRF receptor I [2] = target: T1, human CRF receptor I; assay: Binding assay (125I-CRF, membrane fraction); settings: 125I-CRF 0.25 nM; membrane fraction of CHO-K1 cells forcedly expressing human CRF receptor I; room temperature, 2 hours
Experimental: The forced-expression cell strain of the human CRF receptor I (parent strain is CHO-K1 cell) was cultured until the cell was confluent and collected with a scraper. The collected cells were washed twice with PBS, and were suspended with an ice-colded binding assay buffer (Tris-HCl (50 mM, pH 7.0), EDTA (2 mM, pH 8.0), and MgCl2 (10 mM))). After fractured with a dounce-type homogenizer, the suspended cells were centrifuged at 10,000 g, and a membrane fraction was collected. The collected membrane fraction was resuspended with a little amount of the binding assay buffer, thereafter diluted with the binding assay buffer so as to have a concentration of 1 mg/mL. The obtained membrane fraction was used for a binding assay.
^125I-CRF was diluted with the binding assay buffer so as to have a concentration of 0.5 nM, whereby 50 μL of the diluted ^125I-CRF was added to a siliconized 1.5-mL tube. Next, test drugs diluted at appropriate times, such as DMSO (for general binding) or 100 μM of CRF (for non-specific binding), was added to a […]. Finally, 50 μL of the membrane fraction was added thereto and the reaction was started (final concentration of ^125I-CRF was 0.25 nM). The tube was incubated at room temperature for 2 hours. […] A membrane binding count was measured using a γ counter.
The specific binding count was obtained by subtracting the non-specific count from the measured count.

IC50 (human CRF receptor I [1]): 41 nM | IC50 (human CRF receptor I [2]): 12 nM
SMILES: CCC(CC)c1cc(C)c2nc(-c3ccc(OC)cc3Cl)c(C)n2c1 [Example 7, 2-(2-chloro-4-methoxyphenyl)-6-(1-ethylpropyl)-3,8-dimethylimidazo[1,2-a]pyridine]
